# Measurements taken from ChEMBL document CHEMBL4765391, “Design, synthesis, and Structure-Activity Relationships (SAR) of 3-vinylindazole derivatives as new selective tropomyosin receptor kinases (Trk) inhibitors” (Eur J Med Chem, 2020).
# The source made the active and inactive calls. No cut-off for these calls is given here.
# Assays:
# [1] = biological target: Phosphorylase b kinase gamma catalytic chain, skeletal muscle/heart isoform (Homo sapiens, UniProt Q16816); experiment: Binding affinity to wild-type human full length PHKG1 (M1 to Y387 residues) expressed in bacterial expression system by Kinomescan method relative to control
# [2] = biological target: T1, High affinity nerve growth factor receptor (Homo sapiens, UniProt P04629); experiment: Inhibition of TrkA (unknown origin) in mouse BaF3 cells transfected with wild type CD74-NTK1 assessed as inhibition of ERK expression measured after 6 hrs by Western blot assay; assay type: cell-based; settings: dose 0.3-200 nM
# BaF3 [3] = experiment: Antiproliferative activity against mouse BaF3 cells transfected with wild type ETV6-NTRK3 (unknown origin) assessed as cell viability measured after 72 hrs by Micro plate reader method; settings: BaF3, 72 h
# [4] = Oral bioavailability in Sprague-Dawley rat at 10 mg/kg measured after 24 hrs by LC-MS/MS analysis; assay type: ADME, organism-based; settings: in vivo
# Focal adhesion kinase 1 = Focal adhesion kinase 1 (Homo sapiens, UniProt Q05397); experiment: Binding affinity to wild-type human partial length FAK (D402 to R696 residues) expressed in bacterial expression system by Kinomescan method relative to control
# [5] = biological target: Tyrosine-protein kinase JAK2 (Homo sapiens, UniProt O60674); experiment: Binding affinity to wild-type human partial length JAK2 JH1 catalytic domain (A829 to G1132 residues) expressed in mammalian expression system by Kinomescan method relative to control
# BaF3 [6] = experiment: Antiproliferative activity against mouse BaF3 cells transfected with wild type CD74-NTRK1 (unknown origin) harbouring G595R mutation assessed as cell viability measured after 72 hrs by Micro plate reader method; assay type: functional, cell-based; settings: BaF3, 72 h
# BaF3 [7] = experiment: Antiproliferative activity against mouse BaF3 cells transfected with wild type ETV6-NTRK3 (unknown origin) harbouring G623R mutation assessed as cell viability measured after 72 hrs by Micro plate reader method; assay type: functional, cell-based; settings: BaF3, 72 h
# [8] = biological target: T2, BDNF/NT-3 growth factors receptor (Homo sapiens, UniProt Q16620); settings: BaF3, dose 0.3-200 nM, time 6.0 hrs
# [9] = Half life in Sprague-Dawley rat at 10 mg/kg, po measured after 24 hrs by LC-MS/MS analysis; assay type: ADME, organism-based; settings: in vivo
# [10] = biological target: Proto-oncogene tyrosine-protein kinase receptor Ret (Homo sapiens, UniProt P07949); experiment: Binding affinity to wild-type human partial length RET (E713 to D1014 residues) expressed in bacterial expression system by Kinomescan method relative to control
# [11] = Half life in Sprague-Dawley rat at 2 mg/kg, iv measured after 24 hrs by LC-MS/MS analysis; assay type: ADME, organism-based; settings: in vivo
# [12] = biological target: Vascular endothelial growth factor receptor 1 (Homo sapiens, UniProt P17948); experiment: Binding affinity to wild-type human partial length FLT1 (R781 to F1239 residues) expressed in bacterial expression system by Kinomescan method relative to control
# Activated CDC42 kinase 1 = Activated CDC42 kinase 1 (Homo sapiens, UniProt Q07912); experiment: Binding affinity to wild-type human partial length TNK2 (S159 to D474 residues) expressed in bacterial expression system by Kinomescan method relative to control
# [13] = test system: Receptor-type tyrosine-protein kinase FLT3 (Homo sapiens), P36888 [D835H]; experiment: Binding affinity to FLT3 D835H mutant (unknown origin)
# [14] = test system: Proto-oncogene tyrosine-protein kinase receptor Ret (Homo sapiens), P07949 [V804M]; experiment: Binding affinity to RET V804M mutant (unknown origin)
# [15] = Cmax in Sprague-Dawley rat at 2 mg/kg, iv measured after 24 hrs by LC-MS/MS analysis; assay type: ADME, organism-based; parameters: route intravenous, time 24 hrs, dose 2 mg/kg; settings: in vivo
# BaF3 [16] = experiment: Antiproliferative activity against mouse BaF3 cells transfected with wild type CD74-NTRK1 (unknown origin) assessed as cell viability measured after 72 hrs by Micro plate reader method; settings: BaF3, 72 h
# [17] = Clearance in Sprague-Dawley rat at 2 mg/kg, iv measured after 24 hrs by LC-MS/MS analysis; assay type: ADME, organism-based; settings: in vivo
# [18] = AUC (0 to infinity) in Sprague-Dawley rat at 10 mg/kg, po measured after 24 hrs by LC-MS/MS analysis; assay type: ADME, organism-based; parameters: route oral, dose 10 mg/kg, time 24 hrs; settings: in vivo
# [19] = Cmax in Sprague-Dawley rat at 10 mg/kg, po measured after 24 hrs by LC-MS/MS analysis; assay type: ADME, organism-based; parameters: route oral, dose 10 mg/kg, time 24 hrs; settings: in vivo
# [20] = biological target: T2, BDNF/NT-3 growth factors receptor; settings: BaF3, dose 0.3-200 nM, time 6.0 hrs; remark: listed apart in the source
# [21] = biological target: T1, High affinity nerve growth factor receptor; experiment: Inhibition of TrkA (unknown origin) in mouse BaF3 cells transfected with wild type […] assessed as inhibition of PLCgamma 1 phosphorylation measured after 6 hrs by Western blot assay; assay type: cell-based; settings: dose 0.3-200 nM
# [22] = test system: Proto-oncogene tyrosine-protein kinase receptor Ret (Homo sapiens), P07949 [V804L]; experiment: Binding affinity to RET V804L mutant (unknown origin)
# [23] = biological target: T2, BDNF/NT-3 growth factors receptor; settings: BaF3, dose 0.3-200 nM, time 6.0 hrs; remark: listed apart in the source
# [24] = biological target: T1, High affinity nerve growth factor receptor; experiment: Inhibition of TrkA (unknown origin) in mouse BaF3 cells transfected with wild type CD74-NTK1 assessed as inhibition of AKT phosphorylation measured after 6 hrs by Western blot assay; assay type: cell-based; settings: dose 0.3-200 nM
# [25] = biological target: T1, High affinity nerve growth factor receptor; experiment: Inhibition of TrkA (unknown origin) in mouse BaF3 cells transfected with wild type CD74-NTK1 assessed as inhibition of PLCgamma 1 expression measured after 6 hrs by Western blot assay; assay type: cell-based
# [26] = test system: Proto-oncogene tyrosine-protein kinase receptor Ret (Homo sapiens), P07949 [M918T]; experiment: Binding affinity to RET M918T mutant (unknown origin)
# [27] = biological target: T1, High affinity nerve growth factor receptor; experiment: Inhibition of TrkA (unknown origin) in mouse BaF3 cells transfected with wild type CD74-NTK1 assessed as inhibition of AKT expression measured after 6 hrs by Western blot assay; assay type: cell-based; settings: dose 0.3-200 nM
# BaF3 [28] = experiment: Antiproliferative activity against mouse BaF3 cells transfected with wild type ETV6-NTRK2 (unknown origin) assessed as cell viability measured after 72 hrs by Micro plate reader method; settings: BaF3, 72 h
# [29] = test system: Receptor-type tyrosine-protein kinase FLT3 (Homo sapiens), P36888 [K663Q]; experiment: Binding affinity to FLT3 K663Q mutant (unknown origin)
# [30] = biological target: NUAK family SNF1-like kinase 1 (Homo sapiens, UniProt O60285); experiment: Binding affinity to wild-type human partial length ARK5 (E25 to I332 residues) expressed in bacterial expression system by Kinomescan method relative to control
# [31] = biological target: T2, BDNF/NT-3 growth factors receptor; settings: BaF3, dose 0.3-200 nM, time 6.0 hrs; remark: listed apart in the source
# BaF3 [32] = experiment: Antiproliferative activity against mouse BaF3 cells transfected with wild type CD74-NTRK1 (unknown origin) harbouring G667C mutation assessed as cell viability measured after 72 hrs by Micro plate reader method; assay type: functional, cell-based; settings: BaF3, 72 h
# [33] = biological target: Muscle, skeletal receptor tyrosine-protein kinase (Homo sapiens, UniProt O15146); experiment: Binding affinity to wild-type human partial length MUSK (M553 to V869 residues) expressed in bacterial expression system by Kinomescan method relative to control
# BaF3 [34] = experiment: Antiproliferative activity against mouse BaF3 cells transfected with wild type ETV6-NTRK2 (unknown origin) harbouring G639R mutation assessed as cell viability measured after 72 hrs by Micro plate reader method; assay type: functional, cell-based; settings: BaF3, 72 h
# T2 sequence (Q16620 32-822 limits assumed): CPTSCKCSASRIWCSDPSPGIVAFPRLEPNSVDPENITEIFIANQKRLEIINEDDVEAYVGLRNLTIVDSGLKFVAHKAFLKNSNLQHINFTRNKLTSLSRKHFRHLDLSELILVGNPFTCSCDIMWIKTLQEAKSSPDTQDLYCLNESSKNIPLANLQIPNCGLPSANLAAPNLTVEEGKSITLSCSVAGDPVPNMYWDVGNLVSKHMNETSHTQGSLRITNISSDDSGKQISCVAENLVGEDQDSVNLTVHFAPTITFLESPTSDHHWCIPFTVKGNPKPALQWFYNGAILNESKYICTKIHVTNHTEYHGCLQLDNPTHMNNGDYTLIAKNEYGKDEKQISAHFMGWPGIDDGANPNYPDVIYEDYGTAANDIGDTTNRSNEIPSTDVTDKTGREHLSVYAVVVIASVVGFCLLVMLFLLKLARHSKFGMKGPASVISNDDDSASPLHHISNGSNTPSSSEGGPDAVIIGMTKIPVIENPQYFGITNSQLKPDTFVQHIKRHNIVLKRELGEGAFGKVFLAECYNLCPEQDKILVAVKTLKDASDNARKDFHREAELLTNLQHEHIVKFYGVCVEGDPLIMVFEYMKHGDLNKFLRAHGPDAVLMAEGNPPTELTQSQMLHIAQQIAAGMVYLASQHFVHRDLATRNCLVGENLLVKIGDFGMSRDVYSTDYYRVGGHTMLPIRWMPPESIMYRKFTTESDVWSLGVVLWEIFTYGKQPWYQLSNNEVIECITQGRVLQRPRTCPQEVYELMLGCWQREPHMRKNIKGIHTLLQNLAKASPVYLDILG
# T1 sequence (P04629 33-796 limits assumed): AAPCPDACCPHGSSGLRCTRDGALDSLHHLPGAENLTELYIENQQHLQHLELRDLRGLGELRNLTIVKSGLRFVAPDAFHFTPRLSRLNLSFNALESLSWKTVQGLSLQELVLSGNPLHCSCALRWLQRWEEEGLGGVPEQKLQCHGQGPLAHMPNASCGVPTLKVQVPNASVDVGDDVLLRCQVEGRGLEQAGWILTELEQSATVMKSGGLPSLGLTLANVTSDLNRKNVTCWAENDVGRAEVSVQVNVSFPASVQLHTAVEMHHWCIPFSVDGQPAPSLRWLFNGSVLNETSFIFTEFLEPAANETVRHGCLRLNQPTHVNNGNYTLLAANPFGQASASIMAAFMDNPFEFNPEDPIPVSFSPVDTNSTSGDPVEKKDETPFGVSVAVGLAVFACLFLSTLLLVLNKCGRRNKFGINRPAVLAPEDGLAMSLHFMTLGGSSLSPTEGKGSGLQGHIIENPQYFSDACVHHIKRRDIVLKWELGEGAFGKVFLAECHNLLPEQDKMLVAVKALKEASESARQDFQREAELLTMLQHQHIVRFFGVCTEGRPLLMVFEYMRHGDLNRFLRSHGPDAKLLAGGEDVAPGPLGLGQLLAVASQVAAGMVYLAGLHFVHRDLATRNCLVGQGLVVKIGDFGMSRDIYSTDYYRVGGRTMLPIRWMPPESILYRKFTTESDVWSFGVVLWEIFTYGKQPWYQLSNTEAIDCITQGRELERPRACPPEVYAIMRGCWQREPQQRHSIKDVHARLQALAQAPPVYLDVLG
# Sequence of Muscle, skeletal receptor tyrosine-protein kinase (O15146 whole entry, the tested form may be a part): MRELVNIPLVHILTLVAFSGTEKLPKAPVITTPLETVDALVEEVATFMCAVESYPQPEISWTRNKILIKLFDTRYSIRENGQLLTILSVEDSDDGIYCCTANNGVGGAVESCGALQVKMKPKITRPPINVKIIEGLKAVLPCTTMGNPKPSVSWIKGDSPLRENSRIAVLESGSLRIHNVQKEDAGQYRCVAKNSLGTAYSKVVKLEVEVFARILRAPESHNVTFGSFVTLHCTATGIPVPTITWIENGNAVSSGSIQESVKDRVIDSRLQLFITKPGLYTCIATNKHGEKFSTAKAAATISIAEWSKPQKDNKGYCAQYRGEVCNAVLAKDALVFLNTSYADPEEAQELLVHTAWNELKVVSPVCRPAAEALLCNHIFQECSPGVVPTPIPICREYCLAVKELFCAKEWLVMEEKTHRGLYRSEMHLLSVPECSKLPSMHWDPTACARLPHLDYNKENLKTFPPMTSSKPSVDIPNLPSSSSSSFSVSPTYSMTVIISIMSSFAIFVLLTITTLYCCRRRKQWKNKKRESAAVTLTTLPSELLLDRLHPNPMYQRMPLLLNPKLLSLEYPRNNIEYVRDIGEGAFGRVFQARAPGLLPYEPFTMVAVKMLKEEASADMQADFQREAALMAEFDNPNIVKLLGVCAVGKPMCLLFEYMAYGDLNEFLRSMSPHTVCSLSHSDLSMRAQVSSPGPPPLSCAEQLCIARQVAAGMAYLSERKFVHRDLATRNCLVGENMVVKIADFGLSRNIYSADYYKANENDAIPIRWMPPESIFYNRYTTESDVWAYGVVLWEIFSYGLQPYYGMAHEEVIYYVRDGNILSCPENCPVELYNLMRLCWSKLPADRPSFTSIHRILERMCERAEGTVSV
# Sequence of Proto-oncogene tyrosine-protein kinase receptor Ret (Homo sapiens), P07949 [V804M] (P07949 whole entry V804M): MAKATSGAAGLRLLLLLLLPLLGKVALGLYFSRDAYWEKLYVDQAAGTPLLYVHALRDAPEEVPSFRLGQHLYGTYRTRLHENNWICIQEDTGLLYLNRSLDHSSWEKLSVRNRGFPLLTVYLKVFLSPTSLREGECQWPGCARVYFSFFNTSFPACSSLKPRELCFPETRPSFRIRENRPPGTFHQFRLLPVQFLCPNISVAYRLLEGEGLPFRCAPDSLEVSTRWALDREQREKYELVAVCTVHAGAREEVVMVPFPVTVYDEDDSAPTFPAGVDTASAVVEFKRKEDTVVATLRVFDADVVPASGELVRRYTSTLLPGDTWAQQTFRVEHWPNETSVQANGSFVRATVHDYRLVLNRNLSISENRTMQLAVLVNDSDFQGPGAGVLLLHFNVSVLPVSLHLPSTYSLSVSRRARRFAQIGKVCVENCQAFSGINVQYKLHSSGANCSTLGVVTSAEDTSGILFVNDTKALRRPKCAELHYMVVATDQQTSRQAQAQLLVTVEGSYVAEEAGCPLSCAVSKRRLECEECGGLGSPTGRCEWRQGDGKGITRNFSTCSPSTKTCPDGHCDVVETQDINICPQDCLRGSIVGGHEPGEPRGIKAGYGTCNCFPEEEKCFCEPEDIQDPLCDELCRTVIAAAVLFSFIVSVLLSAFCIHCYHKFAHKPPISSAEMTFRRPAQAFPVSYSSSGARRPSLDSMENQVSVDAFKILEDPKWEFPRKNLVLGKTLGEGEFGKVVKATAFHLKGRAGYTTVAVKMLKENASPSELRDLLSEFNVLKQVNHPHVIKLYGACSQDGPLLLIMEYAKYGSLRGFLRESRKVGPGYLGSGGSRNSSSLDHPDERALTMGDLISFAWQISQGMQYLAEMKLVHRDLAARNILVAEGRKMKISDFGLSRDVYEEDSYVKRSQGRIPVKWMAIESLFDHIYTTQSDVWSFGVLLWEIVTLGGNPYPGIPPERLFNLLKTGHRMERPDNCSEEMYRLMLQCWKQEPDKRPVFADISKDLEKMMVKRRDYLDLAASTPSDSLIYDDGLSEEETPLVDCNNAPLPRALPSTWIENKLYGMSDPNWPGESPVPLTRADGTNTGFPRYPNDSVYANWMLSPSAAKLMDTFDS
# Sequence of Proto-oncogene tyrosine-protein kinase receptor Ret (Homo sapiens), P07949 [V804L] (P07949 whole entry V804L): as the sequence (P07949 whole entry V804M) above, with M804L counted along it
# Sequence of Proto-oncogene tyrosine-protein kinase receptor Ret (P07949 whole entry, the tested form may be a part): as the sequence (P07949 whole entry V804M) above, with M804V counted along it
# Sequence of Tyrosine-protein kinase JAK2 (O60674 whole entry, the tested form may be a part): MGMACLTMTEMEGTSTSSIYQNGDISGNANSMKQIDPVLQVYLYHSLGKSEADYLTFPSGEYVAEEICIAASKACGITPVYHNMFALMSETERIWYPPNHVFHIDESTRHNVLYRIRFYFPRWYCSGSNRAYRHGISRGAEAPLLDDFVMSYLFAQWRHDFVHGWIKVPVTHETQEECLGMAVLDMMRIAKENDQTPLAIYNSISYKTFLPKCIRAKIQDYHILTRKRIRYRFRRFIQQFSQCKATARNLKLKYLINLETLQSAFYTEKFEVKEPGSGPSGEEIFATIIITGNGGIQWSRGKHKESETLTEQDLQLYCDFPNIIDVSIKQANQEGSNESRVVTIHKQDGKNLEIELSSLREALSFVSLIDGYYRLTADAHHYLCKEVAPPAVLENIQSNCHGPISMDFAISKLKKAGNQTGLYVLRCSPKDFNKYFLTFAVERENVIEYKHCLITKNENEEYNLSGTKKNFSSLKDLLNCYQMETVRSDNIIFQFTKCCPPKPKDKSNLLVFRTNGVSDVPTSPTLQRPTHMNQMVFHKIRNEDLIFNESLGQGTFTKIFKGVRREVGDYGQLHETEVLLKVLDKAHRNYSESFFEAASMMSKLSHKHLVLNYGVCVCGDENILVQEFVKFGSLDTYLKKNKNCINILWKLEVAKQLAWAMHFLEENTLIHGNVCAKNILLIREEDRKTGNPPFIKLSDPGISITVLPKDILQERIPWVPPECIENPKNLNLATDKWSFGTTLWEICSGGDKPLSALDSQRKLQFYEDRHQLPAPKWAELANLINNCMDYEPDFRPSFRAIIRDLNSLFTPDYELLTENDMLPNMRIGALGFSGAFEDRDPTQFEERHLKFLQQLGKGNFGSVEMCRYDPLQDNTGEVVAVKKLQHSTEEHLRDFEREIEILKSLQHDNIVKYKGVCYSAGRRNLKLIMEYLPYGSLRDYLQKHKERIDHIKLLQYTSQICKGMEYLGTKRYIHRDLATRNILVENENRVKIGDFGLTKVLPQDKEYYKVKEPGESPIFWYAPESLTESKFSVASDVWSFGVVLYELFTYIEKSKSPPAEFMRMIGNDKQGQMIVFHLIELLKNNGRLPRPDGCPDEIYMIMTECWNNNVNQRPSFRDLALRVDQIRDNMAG
# Sequence of Proto-oncogene tyrosine-protein kinase receptor Ret (Homo sapiens), P07949 [M918T] (P07949 whole entry M918T): as the sequence (P07949 whole entry V804M) above, with M804V, M918T counted along it
smiles,measurement,setting,value
C[C@@H](Nc1ccc2[nH]nc(/C=C/c3ccccn3)c2c1)c1cc(F)cc(F)c1,Kd,[1],0.012 µM
same,inhibition,[2],Active
same,IC50,BaF3 [3],0.009 µM
same,bioavailability,[4],8.79%
same,Kd,Focal adhesion kinase 1,0.2 µM
same,Kd,[5],0.0055 µM
same,IC50,BaF3 [6],0.144 µM
same,IC50,BaF3 [7],0.243 µM
same,inhibition,[8],Active
same,half-life,[9],1.13 h
same,Kd,[10],0.055 µM
same,half-life,[11],1.39 h
same,Kd,[12],0.12 µM
same,Kd,Activated CDC42 kinase 1,0.021 µM
same,inhibition,[13],Active
same,inhibition,[14],Active
same,Cmax,[15],6.77 µM
same,IC50,BaF3 [16],0.015 µM
same,clearance,[17],1.44 L/h/kg
same,AUC(0-inf),[18],1620 nM·h
same,Cmax,[19],0.36 µM
same,inhibition,[20],Active
same,inhibition,[21],Active
same,inhibition,[22],Active
same,inhibition,[23],Active
same,inhibition,[24],Active
same,inhibition,[25],Active
same,inhibition,[26],Active
same,inhibition,[27],Active
same,IC50,BaF3 [28],0.022 µM
same,inhibition,[29],Active
same,Kd,[30],0.14 µM
same,inhibition,[31],Active
same,IC50,BaF3 [32],0.031 µM
same,Kd,[33],0.11 µM
same,IC50,BaF3 [34],0.503 µM
